# Results: patent publication US9604996B2 (Bayer Pharma Aktiengesellschaft, priority 2013, dated 2017)
# Molecular target: T1, human adenosine A2b receptor (Homo sapiens, UniProt P29275)
# T1 construct: expressed in transfected cells; host or cells: CHO-K1 (Chinese Hamster Ovary) with CRE-luciferase reporter
# T1 sequence (P29275 1-332): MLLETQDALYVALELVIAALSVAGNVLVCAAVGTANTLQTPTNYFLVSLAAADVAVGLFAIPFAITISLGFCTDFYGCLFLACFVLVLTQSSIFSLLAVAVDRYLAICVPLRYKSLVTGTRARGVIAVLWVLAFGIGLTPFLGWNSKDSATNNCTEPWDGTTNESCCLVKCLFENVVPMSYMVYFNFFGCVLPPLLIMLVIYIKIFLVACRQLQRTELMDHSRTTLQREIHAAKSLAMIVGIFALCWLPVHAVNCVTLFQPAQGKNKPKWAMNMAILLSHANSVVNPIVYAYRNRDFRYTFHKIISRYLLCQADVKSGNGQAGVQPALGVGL
# Test: Cellular reporter gene (CRE-luciferase) A2b receptor antagonist assay in recombinant CHO-K1 cells stimulated with NECA
# Format: cell-based
# Details: recombinant CHO-K1 cell line, co-incubation with EC50 concentration of NECA, 3 hours, in some cases means, rounded to two significant digits
# Method: B-1. Cellular In Vitro Tests for Determining A2b Receptor Activity and Adenosine Receptor Selectivity
# The identification of selective antagonists of the human adenosine A2b receptor and the quantification of the efficacy and selectivity of the compounds according to the invention was carried out with the aid of recombinant cell lines for the human adenosine receptors A1, A2a, A2b and A3. These cell lines were originally derived from an ovarepithelial cell of the hamster (Chinese Hamster Ovary, CHO-K1, American Type Culture Collection, Manassas, Va. 20108, USA). In addition to the respective recombinantly expressed adenosine receptor for testing the efficacy at the A1, A2a and A2b receptors, the cell lines contain a reporter gene construct where expression of the firefly (Photinus pyralis) luciferase is under the control of a promoter which can be activated via intracellular signal cascades by stimulation of the receptors with the (not subtype-selective) adenosine receptor agonist NECA (5′-N-ethylcarboxamidoadenosine) [S. J. Hill, J. G. Baker, S. Rhees, Curr. Opin. Pharmacol. 1, 526-532 (2001)].
# In the case of the A2a and A2b cell lines, this is a minimal promoter having a plurality of cAMP-responsive elements (CRE). Stimulation of the Gs coupled A2b or A2a receptors by NECA ultimately leads, via formation of cAMP, to CRE-dependent induction of luciferase expression, which is detected 3 hours after the start of the incubation with NECA using a detection solution in a suitable luminometer. For testing the antagonists, initially, in a pre-experiment, the concentration of NECA which, at the test day in question, results in half-maximum stimulation of luciferase expression (EC50 concentration) is determined By joint incubation of this EC50 concentration of NECA with the substances to be tested, it is possible to determine their antagonistic activity.
row,Compound,IC50 [nM]
1,Cc1c(C(=O)N2CCC(O)CC2)sc2c1c(=O)n(CCc1cccnc1)c(=O)n2CCC(F)(F)F [Example 15],32
2,"Cc1c(C(=O)N2CCC(O)CC2)sc2c1c(=O)n(CCc1cnccn1)c(=O)n2CCC(F)(F)F [Example 17, 6-[(4-Hydroxypiperidin-1-yl)carbonyl]-5-methyl-3-[2-(pyrazin-2-yl)ethyl]-1-(3,3,3-trifluoropropyl)thieno[2,3-d]pyrimidine-2,4(1H,3H)-dione]",350
3,"CCn1c(=O)c2c(C)c(C(=O)N3CCC(O)CC3)sc2n(CCC=C(F)F)c1=O [Example 19, 1-(4,4-Difluorobut-3-en-1-yl)-3-ethyl-6-[(4-hydroxypiperidin-1-yl)carbonyl]-5-methylthieno[2,3-d]pyrimidine-2,4(1H,3H)-dione]",92
4,"CCn1c(=O)c2c(C)c(C(=O)N3CCC(O)CC3)sc2n(CCOC)c1=O [Example 20, 3-Ethyl-6-[(4-hydroxypiperidin-1-yl)carbonyl]-1-(2-methoxyethyl)-5-methylthieno[2,3-d]pyrimidine-2,4(1H,3H)-dione]",340
5,"CCn1c(=O)c2c(C)c(C(=O)N3CCC(O)(C(F)(F)F)CC3)sc2n(CCC(F)(F)F)c1=O [Example 22, 3-Ethyl-6-{[4-hydroxy-4-(trifluoromethyl)piperidin-1-yl]carbonyl}-5-methyl-1-(3,3,3-trifluoropropyl)thieno[2,3-d]pyrimidine-2,4(1H,3H)-dione]",67
6,"CCn1c(=O)c2c(C)c(C(=O)N3[C@@H]4CC[C@H]3CC(O)C4)sc2n(CCC(F)(F)F)c1=O (stereo partly shown) [Example 23, 3-Ethyl-6-[(3-hydroxy-8-azabicyclo[3.2.1]oct-8-yl)carbonyl]-5-methyl-1-(3,3,3-trifluoropropyl)thieno[2,3-d]pyrimidine-2,4(1H,3H)-dione]",43
7,"CCn1c(=O)c2c(C(F)(F)F)c(C(=O)N3CCC(O)CC3)sc2n(CCC(F)(F)F)c1=O [Example 25, 3-Ethyl-6-[(4-hydroxypiperidin-1-yl)carbonyl]-5-(trifluoromethyl)-1-(3,3,3-trifluoropropyl)thieno[2,3-d]pyrimidine-2,4(1H,3H)-dione]",49
8,"Cc1c(C(=O)N2CCNC(=O)C2)sc2c1c(=O)n(CCc1ccccc1)c(=O)n2CCC=C(F)F [Example 27, 1-(4,4-Difluorobut-3-en-1-yl)-5-methyl-6-[(3-oxopiperazin-1-yl)carbonyl]-3-(2-phenylethyl)thieno[2,3-d]pyrimidine-2,4(1H,3H)-dione]",41
9,"COCCn1c(=O)n(CCc2ccccc2)c(=O)c2c(C)c(C(=O)N3CCNC(=O)C3)sc21 [Example 28, 1-(2-Methoxyethyl)-5-methyl-6-[(3-oxopiperazin-1-yl)carbonyl]-3-(2-phenylethyl)thieno[2,3-d]pyrimidine-2,4(1H,3H)-dione]",150
10,"Cc1c(C(=O)N2CCNC(=O)C2)sc2c1c(=O)n(CCc1ccccc1F)c(=O)n2CCC=C(F)F [Example 30, 1-(4,4-Difluorobut-3-en-1-yl)-3-[2-(2-fluorophenyl)ethyl]-5-methyl-6-[(3-oxopiperazin-1-yl)carbonyl]thieno[2,3-d]pyrimidine-2,4(1H,3H)-dione]",53
11,"Cc1c(C(=O)N2CCNC(=O)C2)sc2c1c(=O)n(CCc1cccnc1)c(=O)n2CCC=C(F)F [Example 34, 1-(4,4-Difluorobut-3-en-1-yl)-5-methyl-6-[(3-oxopiperazin-1-yl)carbonyl]-3-[2-(pyridin-3-yl)ethyl]thieno[2,3-d]pyrimidine-2,4(1H,3H)-dione]",120
12,"CCn1c(=O)c2c(C)c(C(=O)N3CCNC(=O)C3)sc2n(CCC=C(F)F)c1=O [Example 36, 1-(4,4-Difluorobut-3-en-1-yl)-3-ethyl-5-methyl-6-[(3-oxopiperazin-1-yl)carbonyl]thieno[2,3-d]pyrimidine-2,4(1H,3H)-dione]",200

# The next lines start with the values.
row,IC50 [nM],Compound
1,340,"CCn1c(=O)c2c(C)c(C(=O)N3CCNC(=O)C3)sc2n(CCOC)c1=O [Example 37, 3-Ethyl-1-(2-methoxyethyl)-5-methyl-6-[(3-oxopiperazin-1-yl)carbonyl]thieno[2,3-d]pyrimidine-2,4(1H,3H)-dione]"
2,140,"CCn1c(=O)c2c(C)c(C(=O)N3CCNC(=O)C3(C)C)sc2n(CCC(F)(F)F)c1=O [Example 38, 6-[(2,2-Dimethyl-3-oxopiperazin-1-yl)carbonyl]-3-ethyl-5-methyl-1-(3,3,3-trifluoropropyl)thieno[2,3-d]pyrimidine-2,4(1H,3H)-dione]"
3,88,"CCn1c(=O)c2c(C(F)(F)F)c(C(=O)N3CCNC(=O)C3)sc2n(CCC(F)(F)F)c1=O [Example 42, 3-Ethyl-6-[(3-oxopiperazin-1-yl)carbonyl]-5-(trifluoromethyl)-1-(3,3,3-trifluoropropyl)thieno[2,3-d]pyrimidine-2,4(1H,3H)-dione]"
4,68,"Cc1c(C(=O)N2CCC(O)CC2)sc2c1c(=O)n(CC1(c3ccccc3)CC1)c(=O)n2CCC(F)(F)F [Example 49, 6-[(4-Hydroxypiperidin-1-yl)carbonyl]-5-methyl-3-[(1-phenylcyclopropyl)methyl]-1-(3,3,3-trifluoropropyl)thieno[2,3-d]pyrimidine-2,4(1H,3H)-dione]"
5,150,"Cc1c(C(=O)N2CCC(O)CC2)sc2c1c(=O)n(CC(C)(C)c1ccccc1)c(=O)n2CCC(F)(F)F [Example 50, 6-[(4-Hydroxypiperidin-1-yl)carbonyl]-5-methyl-3-(2-methyl-2-phenylpropyl)-1-(3,3,3-trifluoropropyl)thieno[2,3-d]pyrimidine-2,4(1H,3H)-dione]"
6,16,"Cc1c(C(=O)N2CCC(O)CC2)sc2c1c(=O)n(CC(F)(F)c1ccccc1)c(=O)n2CCC(F)(F)F [Example 51, 3-(2,2-Difluoro-2-phenylethyl)-6-[(4-hydroxypiperidin-1-yl)carbonyl]-5-methyl-1-(3,3,3-trifluoropropyl)thieno[2,3-d]pyrimidine-2,4(1H,3H)-dione]"
7,210,"COCCn1c(=O)n(CC(F)(F)c2ccccc2)c(=O)c2c(C)c(C(=O)N3CCC(O)CC3)sc21 [Example 52, 3-(2,2-Difluoro-2-phenylethyl)-6-[(4-hydroxypiperidin-1-yl)carbonyl]-1-(2-methoxyethyl)-5-methylthieno[2,3-d]pyrimidine-2,4(1H,3H)-dione]"
8,170,"Cc1c(C(=O)N2CCC(O)CC2)sc2c1c(=O)n(CCc1ccccn1)c(=O)n2CCC(F)(F)F [Example 53, 6-[(4-Hydroxypiperidin-1-yl)carbonyl]-5-methyl-3-[2-(pyridin-2-yl)ethyl]-1-(3,3,3-trifluoropropyl)thieno[2,3-d]pyrimidine-2,4(1H,3H)-dione]"
9,250,"Cc1c(C(=O)N2CCC(O)CC2)sc2c1c(=O)n(CCn1ccnc1)c(=O)n2CCC(F)(F)F [Example 55, 6-[(4-Hydroxypiperidin-1-yl)carbonyl]-3-[2-(1H-imidazol-1-yl)ethyl]-5-methyl-1-(3,3,3-trifluoropropyl)thieno[2,3-d]pyrimidine-2,4(1H,3H)-dione]"
10,19,"CCn1c(=O)c2c(C)c(C(=O)N3CCC(O)CC3)sc2n(CCOC(F)(F)F)c1=O [Example 56, 3-Ethyl-6-[(4-hydroxypiperidin-1-yl)carbonyl]-5-methyl-1-[2-(trifluoromethoxy)ethyl]thieno[2,3-d]pyrimidine-2,4(1H,3H)-dione]"
